The target of test [1] is T1, Human LAG3 protein (Homo sapiens, UniProt P18627).
T1 sequence (P18627 23-525): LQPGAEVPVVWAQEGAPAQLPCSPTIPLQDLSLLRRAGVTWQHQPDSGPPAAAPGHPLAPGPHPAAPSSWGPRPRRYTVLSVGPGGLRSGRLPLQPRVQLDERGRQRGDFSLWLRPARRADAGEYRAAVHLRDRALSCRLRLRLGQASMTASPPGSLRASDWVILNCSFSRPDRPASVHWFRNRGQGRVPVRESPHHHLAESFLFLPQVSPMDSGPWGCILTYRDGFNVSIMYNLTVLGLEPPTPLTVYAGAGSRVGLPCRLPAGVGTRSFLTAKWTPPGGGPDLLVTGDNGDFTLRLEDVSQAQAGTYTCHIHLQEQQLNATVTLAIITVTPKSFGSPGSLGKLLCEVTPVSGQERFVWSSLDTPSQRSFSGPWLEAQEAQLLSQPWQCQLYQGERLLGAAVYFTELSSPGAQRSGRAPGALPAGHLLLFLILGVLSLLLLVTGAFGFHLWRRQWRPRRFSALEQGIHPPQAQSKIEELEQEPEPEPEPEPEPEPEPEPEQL
Description: SPR interaction assay, CM5 chip amino coupling, human LAG3. It counts as binding. To be noted: for Rmax / Kd / Note / kon / koff: ligand Human LAG3 protein; for Kd: Compound 9 fitted in steady-state mode; for Note: bound or not bound; for kon: read-out: Ka; for koff: read-out: Kd. From the text: A surface plasmon is an electromagnetic wave on a metal surface and is generated by the interaction of photons and electrons which are freely vibrated. Surface plasmon resonance (SPR) is an optical phenomenon that occurs on the surfaces of two media, and such a phenomenon can be induced by photons or electrons. When light enters an optically thinner medium from an optically denser medium, the phenomenon of total reflection occurs, and an evanescent wave is generated and enters the optically thinner medium. When the totally reflected evanescent wave meets the plasmon wave on the metal surface, resonance may occur, the energy of the reflected light decreases, and a resonance peak occurs on the energy spectrum of the reflected light. Such a resonance is called surface plasmon resonance. The angle of incidence causing the surface plasmon resonance is called an SPR angle. An SPR biosensor provides a sensitive, non-labeled detection technique for monitoring intermolecular interactions in real time. The sensor detects the change in the SPR angle, and the SPR is related to the refractive index of the metal surface. When an analyte binds to the chip surface, the refractive index of the chip surface changes, thus causing the change in the SPR angle. This is the basic principle for the SPR biosensor to detect intermolecular interactions in real time. During the interaction analysis, the change in the SPR angle is recorded on the sensorgram in real time.
Through the information query, the theoretical isoelectric point of the LAG3 protein is about 9.82, and the amino coupling method was contemplated to immobilize the protein. Since the main ligands of the LAG3 protein are FGL1 and MHCII proteins, after the LAG3 protein was coupled, the FGL1 protein sampling method was used to verify the protein activity.
Protein coupling buffer solution: 1.05× PBS-P+; 1.02× PBS-P+
Interaction buffer solution: 1.0× PBS-P+, 5% DMSO; 1.0× PBS-P+, 2% DMSO
In this experiment, by using the CM5 chip amino coupling method, the human LAG3 protein was immobilized to the Fc2 or Fc3 channel, and the mouse LAG3 protein was immobilized to the Fc3 or Fc4 channel.
LAG3 protein coupling conditions were as follows: the concentration was about 25 µg/mL, the system was sodium acetate solution with a pH of 5.5, the chip activation time was 420 s, and the blocking time was 420 s.
LAG3 protein coupling conditions were as follows: the concentration was about 50 µg/mL, the system was sodium acetate solution with a pH of 4.5, the chip activation time was 420 s, and the blocking time was 420 s.

Test [2] deals with mouse melanoma B16F10. It counts as in vivo. To be noted: 15 days. As to the method: (1) 43 8-week-old female C57B/L mice were selected and divided into 5 cages. One preserved B16F10 tumor-bearing female C57L mouse was sacrificed by cervical dislocation. 75% alcohol was sprayed on the skin of the mouse in a laminar flow cabinet, and the tumor tissue of the tumor-bearing mouse was separated by sterilized surgical instruments and cut into a sterilized 5 mL homogenizer with ophthalmic scissors. The tumor tissue was slowly milled on ice to form a tumor fluid. The number of cells was 6.85 × 10^7 cells/mL as counted with a BioRad counting instrument. The tumor fluid was placed in an Erlenmeyer flask in an ice bath for later use. The tumor fluid was evenly aspirated using a 1 mL sterile syringe and inoculated 0.2 mL/C57/L mouse. After the inoculation was completed, the mice continued to be fed under the initial feeding conditions.
(2) Animal grouping and administration: On the second day after tumor fluid inoculation of C57B/L mice, 43 mice were randomly grouped: 10 mice in a control group, 8 mice in a Compound 4-20 mg/kg group, 8 mice in a Compound 4-30 mg/kg group, 8 mice in a Compound 4-40 mg/kg group, and 9 mice in a positive control drug cyclophosphamide CTX-100 mg/kg group. The mice were weighed and administered.
(3) Drug preparation: The corresponding amounts of the drugs were weighed according to the final concentrations of the experimental groups. The drugs of the Compound 4-20 mg/kg group and the Compound 4-30 mg/kg group were prepared with 0.25% CMCNa + Tween 80 and administered orally once a day. The drug of Compound 4-40 mg/kg was prepared with normal saline + Tween 80 and administered intraperitoneally. CTX was prepared with normal saline and administered intraperitoneally once. The mice in the control group were given 0.25% CMCNa solution orally.
(4) The animals were sacrificed, and the tumors were separated and weighed. The animals in each group were treated immediately 1 h after administration on the last day and weighed, and the tumor tissue was weighed.

Setting [3] is: B16F10, 40 mg/kg, table prints po, text says intraperitoneally.

Like-named read-outs stand apart in the source and are kept apart here.

Consider `CCCCCCOc1ccc2cc1-c1cc(ccc1OCCCCCC)C(=O)CCCCCC2=O` [Compound 4], for which, in test [1], the “interaction with the human LAG3 protein” value is reported as “interacts with the human LAG3 protein”, the Rmax turned out to be 124.7 RU, binding was characterised by a dissociation constant (Kd) of 52.9 µM and the Note result is “Bound”. In test [1], the kon was 418 M⁻¹ s⁻¹ and the koff came to 0.0221 s⁻¹. Besides, in test [2] (B16F10, 20 mg/kg po once a day), the Inhibition rate is 55.12% and the Tumor weight is 1.304 ± 0.623 g. In test [2] (B16F10, 30 mg/kg po once a day), this compound displayed an Inhibition rate of 28.00% and a Tumor weight of 2.091 ± 1.199 g. In test [2] (setting [3]), this compound registered an Inhibition rate of 44.40% and a Tumor weight of 1.615 ± 0.495 g.

As to `CCCCCCOc1ccc(C(=O)O)cc1-c1cc(C(=O)NCCCCNC(=O)C(F)(F)F)ccc1OCCCCCC` [Compound 8], in test [1], the “interaction with the human LAG3 protein” value is on record as “interacts with the human LAG3 protein”, the Rmax stood at 8.639 RU, the Kd was 7.76 µM and the Note entry was “Bound”. In addition, in test [1], the kon came out at 446 M⁻¹ s⁻¹ and the koff is 0.00346 s⁻¹.

A word on the Kd: it is a measure of binding affinity in units of concentration.
